Data set [1] in a line: Danio rerio (zebrafish) embryo dose-response experiments. Format: in vivo. As to conditions: AB/Tubingen, Danio rerio (zebrafish), in vivo, other: immersion in chemical-treated water; non-target system; embryos, 24 hours exposure; read-out: D. rerio LC50. The protocol:
Zebrafish chemical assays were performed similarly to previously described methods^63. In brief, fish were maintained at 28.5° C. on a 14/10 hour light/dark cycle and staged according to hours post fertilization (hpf). For each biological replicate, eggs from LT fish (AB/Tubingen strain) were collected at 4 hpf. At 24 hpf, embryos were arrayed in 24 well plates, 10 per well. In 2 ml tubes, 4 μl of chemical dissolved in DMSO at the appropriate concentration was added to 800 μl of water and then vortexed for 30 s intensively. Water was removed from the embryos in the wells and 800 μl of chemical-treated water was transferred to each of the wells. The DMSO control wells contained DMSO alone. The final DMSO concentration in every well was 0.5% (v/v). […] The embryos were incubated in the chemicals for 24 hours and scored for death and toxicity at 48 hpf. Toxicity was defined as the embryos showing developmental defects such as a curved body, reduced body size, skin whiteness, and heart edema. “Relative viability” was calculated by dividing the number of viable and properly developed embryos in the treatment wells by the average number of viable and properly developed embryos across six DMSO control wells. Three biological replicates were performed for each dose-response experiment, and the relative viability values were averaged across the three replicates.

For a further data set, the system named is P. pacificus. Kind of data set: Pristionchus pacificus dose-response experiments. The class given is in vivo. As to conditions: larvae, animals reaching L3 stage or older counted. The protocol:
Dose-response assays were carried out exactly as those described above for the C. elegans L1 dose-response experiments. However, the compounds of the application-induced phenotypes in P. pacificus, even at the highest concentrations, were a combination of lethality and larval arrest. Therefore, for the Pristionchus dose-response assays, the number of animals that reached the L3 stage or older was quantified, as opposed to the number of viable worms. The arrested animals appeared very sick, and would likely die before reaching reproductive adulthood. Therefore, this arrested phenotype was considered to be practically analogous to lethality. The “relative viability” values were calculated the same way as for the C. elegans dose-response experiments, and were averaged across at least three biological replicates. LC50 values were calculated in the same manner as for the C. elegans dose-response assays.

Data set [2] is described as follows: Saccharomyces cerevisiae (budding yeast) dose-response experiments. Format: cell-based. As to conditions: Saccharomyces cerevisiae, yeast strain RY0568 culture; non-target system; growth over 18 hours; read-out: S. cerevisiae LC50. The protocol:
A saturated culture of the yeast strain RY0568 was diluted to an OD600 of 0.015 with fresh YPD media (see ref. 62). 100 μL of this dilute yeast suspension was added to each well of a 96-well plate. The yeast were grown for 4 hours at 30° C. with shaking at 140 rpm. Using a multichannel pipette, 1 μL of chemical solution was added to each well to achieve the desired final concentrations. The final DMSO concentration was 1% (v/v). The microwell plate was then loaded into a TECAN plate reader set at 30° C. The OD600 of each well was measured over an 18-hour period, and the plate was shaken intermittently throughout the run. The areas under the resultant growth curves were calculated using R scripts adapted from those found in the MESS package. The area under the curve at each concentration of a dose-response assay was divided by the area under the curve for the corresponding DMSO control, resulting in a “relative fitness” value for each concentration tested. Three biological replicates were performed for each dose-response experiment, and the relative fitness values were averaged across the three replicates.

A further data set deals with M. chitwoodi. Kind of data set: Root-knot nematode M. chitwoodi mobility (Table 3). The class given is in vivo, Meloidogyne chitwoodi. As to conditions: 45 μM, 2 days of chronic exposure. The protocol:
M. incognita (Kofoid & White) Chitwood Race 1 (originally isolated in Maryland) was used for all experiments, and was maintained on pepper (Capsicum annuum L.) cv. PA-136 in a greenhouse as previously described^64. Infective J2 juveniles were collected as described in ref.65. The microwell dose-response experiments were carried out similarly to previously described protocols^64, 66. In brief, 100 J2s, in 10 μL of deionized water, were added to the wells of 96-well polystyrene plates, after which 190 μL of deionized water containing dissolved chemical, or DMSO alone, was added to each well. The chemicals were tested at 45 μM, and the final concentration of DMSO in each well was 0.5% (v/v). The wells were covered with a plastic adhesive strip, and the lids of the plates were sealed with parafilm. The plates were incubated at 25° C. The mobile fraction of worms was quantified by counting the number of mobile and immobile worms after 2 days of incubation, and then dividing the number of mobile worms by the total number of worms in the well. Three technical replicates were performed for each treatment, and an average value for the mobile fraction of worms was calculated across the three replicates. The percent effectiveness at inhibiting nematode movement was calculated by dividing the average value for the chemical treatment by the average value for the DMSO control, then subtracting this value from 1, and then multiplying by 100.
M. chitwoodi race 1 (the strain commonly found in the pacific northwest of the United States) was used for all experiments, and was maintained on tomato plants (Solanum lycopersicum ‘Rutgers’) as previously described^73. The M. chitwoodi in vitro assays were performed identically to the M. incognita in vitro assays (see above).
The ability of exemplary compounds of the application to kill C. elegans at 100 μM (except for compound If which was tested at 50 μM) and to affect the mobility of M. chitwoodi at 45 μM was tested as described above for M. incognita infective juveniles. Percent mobility was measured after 2 days of chronic exposure to test compounds (Table 3).

In data set [3] the test system is M. incognita infective juveniles. Kind of data set: Meloidogyne incognita dose-response experiments (infective J2 juveniles, FIG. 2). As to conditions: for nematicidal activity on M. incognita infective juveniles: 5, 15, 45 micromolar, third day after water rinse. The class given is in vivo. The protocol:
M. incognita (Kofoid & White) Chitwood Race 1 (originally isolated in Maryland) was used for all experiments, and were maintained on pepper (Capsicum annuum L.) cv. PA-136 in a greenhouse as previously described^64. Infective J2 juveniles were collected as described in ref. 65. The microwell dose-response experiments were carried out similarly to previously described protocols^64, 66. In brief, 100 J2 s, in 10 μL of deionized water, were added to the wells of 96-well polystyrene plates, after which 190 μL of deionized water containing dissolved chemical, or DMSO alone, was added to each well. The final concentration of DMSO in each well was 0.5% (v/v), except for the water only control which contained no DMSO and no added chemicals. The final concentrations of the chemicals for each dose-response experiment were 5, 15, and 45 μM. The wells were covered with a plastic adhesive strip, and the lids of the plates were sealed with parafilm. The plates were incubated at 25° C. The fraction of active worms was quantified by counting the number of mobile and immobile worms after 1 and 2 days of incubation, and then dividing the number of mobile worms by the total number of worms in the well. After 2 days of incubation, the chemicals were removed and replaced with deionized water (i.e. the water rinse) and the fraction of active worms was quantified 1 day later. A failure of the worms to recover after rinsing with water is consistent with them having been killed by the chemical treatment. Four technical replicates were performed for each treatment.

The LC50 is the concentration that kills 50% of the test population.

`Cc1csc2nc(-c3ccccc3)cn12` [Compound Ie]: the LC50 at 24 h in data set [1] is more than 100 µM. The LC50 in the data set with P. pacificus came out at 45.5 µM. Besides, in data set [2], the CC50 at 18 h was more than 100 µM. Moreover, the RKN mobility with M. chitwoodi was found to be 50.8%.

For `Clc1ccc(-c2cn3ccsc3n2)cc1` [Ia], the “nematicidal activity on M. incognita infective juveniles” value in data set [3] is on record as “demonstrated nematicidal activity at one or more concentrations”. Further, the “inhibitory effects on worm activity compared with tioxazafen” value in data set [3] (each time point, every concentration tested) was “outperformed the commercial nematicide tioxazafen”. The compound further displayed a nematode lethality in data set [3] (lowest concentration assayed (5 micromolar)) of 100%. Besides, in data set [1], the LC50 at 24 h was more than 100 µM. Besides, in the data set on P. pacificus, the LC50 was 6.1 µM. Further, the CC50 at 18 h in data set [2] was more than 100 µM. Besides, in the data set on M. chitwoodi, the RKN mobility is 0%.

Consider `Fc1ccc(-c2cn3ccsc3n2)cc1` [Ib], for which, in data set [3], the “nematicidal activity on M. incognita infective juveniles” value is “demonstrated nematicidal activity at one or more concentrations”. For the same compound, in data set [1], the LC50 at 24 h was more than 100 µM. In addition, in the data set with P. pacificus, the LC50 is 14.7 µM. The CC50 at 18 h in data set [2] was more than 100 µM. In the data set on M. chitwoodi, this compound gave an RKN mobility of 43.2%.

For the origin of these results see US20220264883A1, “IMIDAZOTHIAZOLE COMPOUNDS AND METHODS FOR TREATING PLANT NEMATODE INFECTIONS” (The Governing Council of the University of Toronto, priority 2019, published 2022).
